Experimental data: patent publication US20170355705A1 (GlaxoSmithKline Intellectual Property (No.2) Limited, priority 2014, published 2017)

Target: T1, SIRT1 (Homo sapiens, UniProt Q96EB6)
T1 sequence (Q96EB6 1-747): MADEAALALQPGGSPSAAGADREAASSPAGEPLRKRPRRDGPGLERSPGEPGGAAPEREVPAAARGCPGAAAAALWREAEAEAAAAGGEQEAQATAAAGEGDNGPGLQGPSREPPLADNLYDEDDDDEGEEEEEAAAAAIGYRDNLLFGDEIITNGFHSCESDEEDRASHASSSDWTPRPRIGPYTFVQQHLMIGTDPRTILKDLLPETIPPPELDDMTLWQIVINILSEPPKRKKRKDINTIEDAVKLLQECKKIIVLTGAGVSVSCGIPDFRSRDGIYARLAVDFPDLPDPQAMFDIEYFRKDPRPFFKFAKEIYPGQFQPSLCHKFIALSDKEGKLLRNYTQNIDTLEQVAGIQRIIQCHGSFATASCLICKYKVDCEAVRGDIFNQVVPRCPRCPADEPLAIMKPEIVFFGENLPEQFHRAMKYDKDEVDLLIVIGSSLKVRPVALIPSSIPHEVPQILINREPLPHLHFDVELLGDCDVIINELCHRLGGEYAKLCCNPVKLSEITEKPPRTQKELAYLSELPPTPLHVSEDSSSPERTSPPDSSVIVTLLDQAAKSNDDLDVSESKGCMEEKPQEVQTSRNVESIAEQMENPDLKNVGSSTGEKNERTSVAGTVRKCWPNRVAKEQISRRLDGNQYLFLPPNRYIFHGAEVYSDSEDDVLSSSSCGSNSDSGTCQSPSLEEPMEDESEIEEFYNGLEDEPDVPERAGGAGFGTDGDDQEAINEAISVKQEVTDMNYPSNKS
Test: Trp mass spectrometry assay of SIRT1 activity (EC1.5, percent maximum activation)
Type: biochemical
Details: Trp mass spectrometry assay; for TRP Activity (EC1.5): EC1.5 = concentration giving 150% activation of SIRT1
Text: Mass spectrometry based assays were used to identify modulators of SIRT1 activity. […] The peptide was labeled with the fluorophore 5TMR (excitation 540 nm/emission 580 nm) at the C-terminus. The sequence of the peptide substrate was based on p53 with several modifications. In addition, the methionine residue naturally present in the sequence was replaced with the norleucine because the methionine may be susceptible to oxidation during synthesis and purification.
The Trp mass spectrometry assay was conducted as follows. […] The SIRT1 protein was obtained by cloning the SirT1 gene into a T7-promoter containing vector, which was then expressed in BL21(DE3) bacterial cells and purified as described in further detail below. Test compound was added at varying concentrations to this reaction mixture and the resulting reactions were monitored. After the 25 minute incubation with SIRT1, 10 μL of 10% formic acid was added to stop the reaction. The resulting reactions were sealed and frozen for later mass spec analysis. The relative SIRT1 activity was then determined by measuring the amount of O-acetyl-ADP-ribose (OAADPR) formed (or, alternatively, the amount of deacetylated Trp peptide generated) by the NAD-dependent sirtuin deacetylation reaction in the presence of varying concentrations of the test compound versus control reactions lacking the test compound. The degree to which the test agent activated deacetylation by SIRT1 was expressed as EC1.5 (i.e., the concentration of compound required to increase SIRT1 activity by 50% over the control lacking test compound), and Percent Maximum Activation (i.e., the maximum activity relative to control (100%) obtained for the test compound).
This time point was the same as that used for test compounds and, within the linear range, the endpoint represents a change in velocity.
For the above assay, SIRT1 protein was expressed and purified as follows. The SirT1 gene was cloned into a T7-promoter containing vector and transformed into BL21(DE3). The protein was expressed by induction with 1 mM IPTG as an N-terminal His-tag fusion protein at 18° C. overnight and harvested at 30,000×g. Cells were lysed with lysozyme in lysis buffer (50 mM Tris-HCl, 2 mM Tris[2-carboxyethyl]phosphine (TCEP), 10 μM ZnCl2, 200 mM NaCl) and further treated with sonication for 10 min for complete lysis. The protein was purified over a Ni-NTA column (Amersham) and fractions containing pure protein were pooled, concentrated and run over a sizing column (Sephadex S200 26/60 global). The peak containing soluble protein was collected and run on an Ion-exchange column (MonoQ). Gradient elution (200 mM-500 mM NaCl) yielded pure protein. This protein was concentrated and dialyzed against dialysis buffer (20 mM Tris-HCl, 2 mM TCEP) overnight. The protein was aliquoted and frozen at −80° C. until further use.
“NT” means not tested; “ND” means not determinable.

[1] = percent maximum activation of SIRT1
[2] = 0.5 μM peptide substrate, 120 μM βNAD+, 10 nM SIRT1, 25 minutes at 25° C.

Row | Structure (SMILES) | TRP Activity (EC1.5) | TRP MAX RESP (percent maximum fold activation) [1] | TRP Activity (EC1.5, concentration of test compound that results in 150% activation of SIRT1) [2] | TRP MAX RESP (percent maximum fold activation) [2]
1 | Cc1cc(-c2ccc3c(n2)N(C(=O)Nc2ncn(C)n2)[C@H]2CCN3C2)ccn1 [Example 143, (4S)-N-(1-methyl-1H-1,2,4-triazol-3-yl)-7-(2-methylpyridin-4-yl)-3,4-dihydro-1,4-methanopyrido[2,3-b][1,4]diazepine-5(2H)-carboxamide] | B (EC1.5 1-25 μM) | A (Fold activation ≧150%) |  | 
2 | N#Cc1ccc(-c2ccc3c(n2)N(C(=O)Nc2cnccn2)[C@H]2CCN3C2)cn1 [Example 219, (4S)-7-(6-cyanopyridin-3-yl)-N-(pyrazin-2-yl)-3,4-dihydro-1,4-methanopyrido[2,3-b][1,4]diazepine-5(2H)-carboxamide] |  |  | C (EC1.5>25 μM) | B (Fold Activation <150%)
3 | Cc1ccc(-c2ccc3c(n2)N(C(=O)Nc2ccnc(O[C@H]4CCOC4)n2)[C@H]2CCN3C2)cn1 [Example 227, (4S)-7-(6-methylpyridin-3-yl)-N-(2-(((S)-tetrahydrofuran-3-yl)oxy)pyrimidin-4-yl)-3,4-dihydro-1,4-methanopyrido[2,3-b][1,4]diazepine-5(2H)-carboxamide] |  |  | B (EC1.5 1-25 μM) | A (Fold activation ≧150%)
4 | CC1CNCCN1c1ccc2c(n1)N(C(=O)Nc1cnccn1)[C@H]1CCN2C1 (single isomer, unassigned) [Example 228] |  |  | C (EC1.5>25 μM) | B (Fold Activation <150%)
5 | Cc1ccc(-c2ccc3c(n2)N(C(=O)Nc2cccnc2)[C@H]2CCN3C2)c(C)n1 [Example 201, (4S)-7-(2,6-dimethylpyridin-3-yl)-N-(pyridin-3-yl)-3,4-dihydro-1,4-methanopyrido[2,3-b][1,4]diazepine-5(2H)-carboxamide] |  |  | B (EC1.5 1-25 μM) | A (Fold activation ≧150%)
6 | Cc1ccc(-c2nc3c(cc2C(F)(F)F)N2CC[C@@H](C2)N3C(=O)Nc2cccnc2)cn1 [Example 1, (4S)-7-(6-methylpyridin-3-yl)-N-(pyridin-3-yl)-8-(trifluoromethyl)-3,4-dihydro-1,4-methanopyrido[2,3-b][1,4]diazepine-5(2H)-carboxamide] | C (EC1.5>25 μM) | B (Fold Activation <150%) |  | 
7 | COc1cc(-c2ccc3c(n2)N(C(=O)Nc2cnccn2)[C@H]2CCN3C2)ccn1 [Example 141, (4S)-7-(2-methoxypyridin-4-yl)-N-(pyrazin-2-yl)-3,4-dihydro-1,4-methanopyrido[2,3-b][1,4]diazepine-5(2H)-carboxamide] | B (EC1.5 1-25 μM) | A (Fold activation ≧150%) |  | 
8 | O=C(Nc1cncc(OCCO)n1)N1c2nc(-c3cccc(C(F)(F)F)c3)c(Cl)cc2N2CC[C@H]1C2 [Example 69, (4S)-8-chloro-N-(6-(2-hydroxyethoxy)pyrazin-2-yl)-7-(3-(trifluoromethyl)phenyl)-3,4-dihydro-1,4-methanopyrido[2,3-b][1,4]diazepine-5(2H)-carboxamide] | A (EC1.5<1 μM) | A (Fold activation ≧150%) |  | 

The next lines start with the values.

Row | TRP Activity (EC1.5) | TRP MAX RESP (percent maximum fold activation) [1] | TRP Activity (EC1.5, concentration of test compound that results in 150% activation of SIRT1) [2] | TRP MAX RESP (percent maximum fold activation) [2] | Structure (SMILES)
9 | B (EC1.5 1-25 μM) | A (Fold activation ≧150%) |  |  | Cc1cc(-c2nc3c(cc2Cl)N2CC[C@@H](C2)N3C(=O)Nc2cc(F)cc(-c3cccnc3)c2)ccn1 [Example 47, (4S)-8-chloro-N-(3-fluoro-5-(pyridin-3-yl)phenyl)-7-(2-methylpyridin-4-yl)-3,4-dihydro-1,4-methanopyrido[2,3-b][1,4]diazepine-5(2H)-carboxamide]
10 |  |  | B (EC1.5 1-25 μM) | A (Fold activation ≧150%) | Cc1cc(-c2ccc3c(n2)N(C(=O)Nc2cnccn2)[C@H]2CCN3C2)cnc1C#N [Example 222, (4S)-7-(6-cyano-5-methylpyridin-3-yl)-N-(pyrazin-2-yl)-3,4-dihydro-1,4-methanopyrido[2,3-b][1,4]diazepine-5(2H)-carboxamide]
11 |  |  |  | A (Fold activation ≧150%) | Cc1cc(-c2ccc3c(n2)N(C(=O)Nc2cc(-c4cnn(CC(F)(F)F)c4)ccn2)[C@H]2CCN3C2)ccn1 [Example 366]
12 | A (EC1.5<1 μM) | A (Fold activation ≧150%) |  |  | Cl.O=C(Nc1ccnc(OC[C@@H](O)CO)c1)N1c2nc(-c3cccc(C(F)(F)F)c3)c(Cl)cc2N2CC[C@H]1C2 [Example 58, (4S)-8-chloro-N-(2-((S)-2,3-dihydroxypropoxy)pyridin-4-yl)-7-(3-(trifluoromethyl)phenyl)-3,4-dihydro-1,4-methanopyrido[2,3-b][1,4]diazepine-5(2H)-carboxamide, Hydrochloride]
13 | A (EC1.5<1 μM) | A (Fold activation ≧150%) |  |  | Cc1cc(-c2cccc(C(F)(F)F)c2)nc2c1N1CC[C@@H](C1)N2C(=O)Nc1ccnc(OC[C@@H](O)CO)c1 [Example 87, (4S)-N-(2-((S)-2,3-dihydroxypropoxy)pyridin-4-yl)-9-methyl-7-(3-(trifluoromethyl)phenyl)-3,4-dihydro-1,4-methanopyrido[2,3-b][1,4]diazepine-5(2H)-carboxamide]
14 | A (EC1.5<1 μM) | A (Fold activation ≧150%) |  |  | O=C(Nc1cccc(OCCCO)n1)N1c2nc(-c3cccc(C(F)(F)F)c3)c(Cl)cc2N2CC[C@H]1C2 [Example 67, (4S)-8-chloro-N-(6-(3-hydroxypropoxy)pyridin-2-yl)-7-(3-(trifluoromethyl)phenyl)-3,4-dihydro-1,4-methanopyrido[2,3-b][1,4]diazepine-5(2H)-carboxamide]
15 | C (EC1.5>25 μM) | B (Fold Activation <150%) |  |  | Cc1cc(-c2nc3c(cc2Cl)N2CC[C@@H](C2)N3C(=O)Nc2cc(OC[C@@H](O)CO)ncn2)ccn1 [Example 44, (4S)-8-chloro-N-(6-((S)-2,3-dihydroxypropoxy)pyrimidin-4-yl)-7-(2-methylpyridin-4-yl)-3,4-dihydro-1,4-methanopyrido[2,3-b][1,4]diazepine-5(2H)-carboxamide]
16 |  | A (Fold activation ≧150%) |  |  | Cc1cc(-c2ccc3c(n2)N(C(=O)Nc2cnccn2)[C@H]2CCN3C2)cc(C)n1 [Example 135, (4S)-7-(2,6-dimethylpyridin-4-yl)-N-(pyrazin-2-yl)-3,4-dihydro-1,4-methanopyrido[2,3-b][1,4]diazepine-5(2H)-carboxamide]
17 | A (EC1.5<1 μM) | A (Fold activation ≧150%) |  |  | O=C(Nc1ccc(OC[C@H](O)CO)nc1)N1c2nc(-c3cccc(C(F)(F)F)c3)c(Cl)cc2N2CC[C@H]1C2 [Example 77, (4S)-8-chloro-N-(6-((R)-2,3-dihydroxypropoxy)pyridin-3-yl)-7-(3-(trifluoromethyl)phenyl)-3,4-dihydro-1,4-methanopyrido[2,3-b][1,4]diazepine-5(2H)-carboxamide]
